# Reference: US10501460B2, “Heterocyclic compounds and uses thereof” (Plexxikon Inc., priority 2013, dated 2019)
# Legend:
# BRD4-BD1 (44-164) = target: T1, BRD4-BD1 (44-164) (Homo sapiens, UniProt O60885); test: Alphascreen binding assay BRD4-BD1 (BRD4 biochemical inhibitory activity); details: read-out: Biochemical activity (IC50 μM) BRD4(1) H4
# T1 construct: BRD4-BD1 (44-164); made in house; host or cells: E. coli BL21-CodonPlus (DE3)
# Protocol: Binding of compounds of formula (I) with bromodomain 2, 3 4 was assessed using Alphascreen binding assay. The inhibition of the interaction between bromodomain and its acetylated target protein (Filippakopoulos P et al. 2012) was measured quantitatively using recombinant BRD proteins, an acetylated Histone 4 peptide and AlphaScreen™ technology. In absence of inhibition the BRD protein bound to AlphaScreen™ nickel chelate acceptor beads can interact with the acetylated Histone 4 peptide which is immobilized by the AlphaScreen™ Streptavidin coated beads. This interaction brings donor and acceptor beads in proximity. The close proximity allows the singlet oxygen produced by laser excitation of the donor beads to reach the acceptor beads and generate a luminescence signal. BRD inhibitors result in a decrease in the proximity signal through an inhibition of the BRD—acetylated peptide interaction.
# Recombinant human bromodomains containing the N-terminal bromodomain (BRD2-BD1 (71-194), BRD3-BD1 (24-144) and BRD4-BD1 (44-164)) or dual bromodomains (BRD4-BD12 (1-477), BRD4-BD12 (1-472)) were prepared and purified as described in protein expression and purification session. The peptide is human Histone H41-21K5AcK8AcK12AcK16Ac-Biotin (Anaspec Calif., USA).
# Protocol for BRD2, BRD3 and BRD4 assay: All components are prepared in buffer composed of 50 mM HEPES pH 7.5, 100 mM NaCl, 0.01% bovine serum albumin (“BSA”), 0.01% Triton X-100, 2 mM dithiothreitol (“DTT”). 7 μL of Bromodomain protein and 7 μL of peptide are added to wells containing 1 μL of various concentrations of test compounds of formula (I) or DMSO vehicle in an Alphaplate (PerkinElmer Ga., USA) and incubated for 1 hour at room temperature. 4 μL donor and acceptor bead mixture is then added with final concentrations of 7.5 μg/ml. 30 minutes after bead addition, Alpha signal is read on the Envision spectrometer ([…]Ex 680 nm, […]Em 520-620 nm). Final concentrations of bromodomain proteins and peptide are as shown below.
# All data was normalized to the mean of 16 high and 16 low control wells on each plate. A four parameter curve fit of the following formula was then applied: Y=a+(b−a)/(1+(x/c)^d) Where ‘a’ is the minimum, ‘b’ is the maximum, ‘c’ is the pIC50 and ‘d’ is the Hill slope. Protein Expression and Purification
# Recombinant human bromodomains containing the N-terminal bromodomain (BRD2-BD1 (71-194), BRD3-BD1 (24-144) and BRD4-BD1 (44-164)) or dual bromodomains (BRD4-BD12 (1-477), BRD4-BD12 (1-472)) were expressed in E. coli cells (in a modified pET vector) with an N-terminal six-His tag and purified using a combination of both IMAC (Ni-affinity) and size exclusion chromatography steps.
# Recombinant BRD proteins were expressed using the E. coli strain BL21-CodonPlus (DE3) (Agilent Technologies Calif., USA). Cells were grown in Terrific Broth (TB) media to an OD600 of 1.2 at 37° C. at which temperature was reduced to 25° C., protein was induced with 1.0 mM ispropyl-β-D-thiogalactopyranoside (“IPTG”) for 12-18 hours and harvested by centrifugation at 8000×g for 20 minutes. Cells were re-suspended in 0.1M K2PO4 pH 8.0, 250 mM NaCl, 10% Glycerol, 0.75% NP-40, 25 mM Imidazole, 5 mM beta-mercaptoethanol (“BME”) with 0.2 mg/ml Lysosyme, 2.0 mM phenylmethanesulfonyl fluoride (“PMSF”), 25 μg/ml DNAse I, incubated on ice for 30 minutes and lyzed with a cell disruptor (MicroFluidics Mass., USA). The lysate was clarified by centrifugation at 20,000×g for 2 hours. The protein was captured with Ni-NTA resin (Life Technologies, USA). Contaminating proteins were washed off with 25 mM Tris-HCl pH 8.3, 250 mM NaCl, 12% Glycerol and 50 mM Imidazole. Following 3× wash steps, protein was eluted step wise using a 50 mM HEPES pH 7.5, 500 mM NaCl and 400 mM Imidazole. The protein was further purified using Gel Filtration column 26/600 Superdex 200 (GE Biosciences NJ, USA) in 50 mM HEPES pH 7.5, 250 mM NaCl. The protein was aliquoted and flash-frozen in liquid Nitrogen. […]
# bromodomain = test: Bromodomain cell assays of Example 40 (at least one of them); assay type: cell-based; details: in at least one of the bromodomain cell assays described in Example 40
# Procedure, shortened: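 Growth inhibition: 3000 MV-4-11, MOLM-13, MM.1S or neuroblastoma cells/well got an 8-point 1:3 series from 10 μM top (0.2% DMSO) for 72 h, then CellTiter-Glo luminescence. Myc reporter: MV-4-11 with E-box firefly luciferase, 24 h exposure, One-Glo luminescence plus CellTiter-Fluo cell count. pIC50 from four-parameter fit.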
# MV-4-11 = test: Oncology cell growth assay MV-4-11 (CellTiter Glo, 72 hours); assay type: cell-based; details: Homo sapiens, MV4-11, 72 h; MV-4-11 cell growth inhibitory activity, 3d
# Procedure, shortened: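 MV-4-11 cells (MLL-AF4 AML) exposed 72 h to 8-point 1:3 titration, top final 10 μM, 0.2% DMSO. CellTiter Glo luminescence as cell-number readout, normalized to DMSO controls; pIC50 from four-parameter fit.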
Compound,IC50 (BRD4-BD1 (44-164)),IC50 (bromodomain),IC50 (MV-4-11)
"Cc1noc(C)c1-c1cnc2ccn(S(=O)(=O)c3ccc(Cl)cc3)c2c1 [P-0053, 4-[1-(4-chlorophenyl)sulfonylpyrrolo[3,2-b]pyridin-6-yl]-3,5-dimethyl-isoxazole]",1 to 10 µM,< 10 µM,1 to 10 µM
"Cc1noc(C)c1-c1cnc2c(CCC(=O)O)cn(S(=O)(=O)c3ccccc3)c2c1 [P-0174, 3-[1-(benzenesulfonyl)-6-(3,5-dimethylisoxazol-4-yl)pyrrolo[3,2-b]pyridin-3-yl]propanoic acid]",1 to 10 µM,< 10 µM,1 to 10 µM
"Cc1noc(C)c1-c1cnc2c(-c3cnc(C4CC4)nc3)cn(S(=O)(=O)c3ccccc3)c2c1 [P-0102, 4-[1-(benzenesulfonyl)-3-(2-cyclopropylpyrimidin-5-yl)pyrrolo[3,2-b]pyridin-6-yl]-3,5-dimethyl-isoxazole]",1 to 10 µM,< 10 µM,1 to 10 µM
"Cc1csc(S(=O)(=O)n2ccc3ncc(-c4c(C)noc4C)cc32)c1 [P-0059, 3,5-dimethyl-4-[1-[(4-methyl-2-thienyl)sulfonyl]pyrrolo[3,2-b]pyridin-6-yl]isoxazole]",1 to 10 µM,< 10 µM,1 to 10 µM
"Cc1noc(C)c1-c1cnc2c(c1)c(S(=O)(=O)c1ccccc1)cn2C1CCOCC1 [P-0183, 4-[3-(benzenesulfonyl)-1-tetrahydropyran-4-yl-pyrrolo[2,3-b]pyridin-5-yl]-3,5-dimethyl-isoxazole]",1 to 10 µM,< 10 µM,≤ 1 µM
"Cc1noc(C)c1-c1cnc2[nH]cc(Cc3cccc(OC(F)(F)F)c3)c2c1 [P-0046, 3,5-dimethyl-4-[3-[[3-(trifluoromethoxy)phenyl]methyl]-1H-pyrrolo[2,3-b]pyridin-5-yl]isoxazole]",1 to 10 µM,< 10 µM,1 to 10 µM
"Cc1noc(C)c1-c1cnc2[nH]cc(C(=O)C3CCSCC3)c2c1 [P-0091, [5-(3,5-dimethylisoxazol-4-yl)-1H-pyrrolo[2,3-b]pyridin-3-yl]-tetrahydrothiopyran-4-yl-methanone]",≤ 1 µM,< 10 µM,1 to 10 µM
"Cc1noc(C)c1-c1cnc2[nH]cc(C(O)c3ccc(C(F)(F)F)nc3)c2c1 (stereo not drawn) [P-0023, [5-(3,5-dimethylisoxazol-4-yl)-1H-pyrrolo[2,3-b]pyridin-3-yl]-[6-(trifluoromethyl)-3-pyridyl]methanol]",1 to 10 µM,< 10 µM,1 to 10 µM
"Cc1noc(C)c1-c1cnc2ccn(S(=O)(=O)c3ccc(F)cc3)c2c1 [P-0052, 4-[1-(4-fluorophenyl)sulfonylpyrrolo[3,2-b]pyridin-6-yl]-3,5-dimethyl-isoxazole]",1 to 10 µM,< 10 µM,1 to 10 µM
"[2H]C([2H])([2H])n1cc(C(OC)C2CCC(F)(F)CC2)c2cc(-c3c(C)noc3C)cnc21 (stereo not drawn) [P-0080, 4-[3-[(4,4-difluorocyclohexyl)-methoxy-methyl]-1-(trideuteriomethyl)pyrrolo[2,3-b]pyridin-5-yl]-3,5-dimethyl-isoxazole]",≤ 1 µM,< 10 µM,≤ 1 µM
"CCCCC(O)(c1cn(C)c2ncc(-c3c(C)noc3C)cc12)C1CCC(F)(F)CC1 (stereo not drawn) [P-0108, 1-(4,4-difluorocyclohexyl)-1-[5-(3,5-dimethylisoxazol-4-yl)-1-methyl-pyrrolo[2,3-b]pyridin-3-yl]pentan-1-ol]",≤ 1 µM,< 10 µM,≤ 1 µM
"Cc1noc(C)c1-c1cnc2c(c1)c(CC1CC3CCC1C3)cn2C (stereo not drawn) [P-0100, 3,5-dimethyl-4-[1-methyl-3-(norbornan-2-ylmethyl)pyrrolo[2,3-b]pyridin-5-yl]isoxazole]",1 to 10 µM,< 10 µM,1 to 10 µM
"Cc1noc(C)c1-c1cnc2c(-c3cnn(C)c3)cn(C(=O)C3CCC(F)(F)CC3)c2c1 [P-0208, (4,4-difluorocyclohexyl)-[6-(3,5-dimethylisoxazol-4-yl)-3-(1-methylpyrazol-4-yl)pyrrolo[3,2-b]pyridin-1-yl]methanone]",≤ 1 µM,,1 to 10 µM
"Cc1noc(C)c1-c1cnc2ccn(S(=O)(=O)c3cccs3)c2c1 [P-0055, 3,5-dimethyl-4-[1-(2-thienylsulfonyl)pyrrolo [3,2-b]pyridin-6-yl]isoxazole]",1 to 10 µM,< 10 µM,1 to 10 µM
"[2H]C([2H])(C1CCC(F)(F)CC1)n1cc(-c2cnn(C3CC3)c2)c2ncc(-c3c(C)noc3C)cc21 [P-0220, 4-[3-(1-cyclopropylpyrazol-4-yl)-1-[dideuterio-(4,4-difluorocyclohexyl)methyl]pyrrolo[3,2-b]pyridin-6-yl]-3,5-dimethyl-isoxazole]",≤ 1 µM,< 10 µM,≤ 1 µM
"Cc1noc(C)c1-c1cnc2c(c1)c(Sc1ccccc1)cn2C1CCOC1 (stereo not drawn) [P-0180, 3,5-dimethyl-4-(3-phenylsulfanyl-1-tetrahydrofuran-3-yl-pyrrolo[2,3-b]pyridin-5-yl)isoxazole]",1 to 10 µM,< 10 µM,1 to 10 µM
"Cc1noc(C)c1-c1cnc2c(C#CCF)cn(S(=O)(=O)c3ccccc3)c2c1 [P-0157, 4-[1-(benzenesulfonyl)-3-(3-fluoroprop-1-ynyl)pyrrolo[3,2-b]pyridin-6-yl]-3,5-dimethyl-isoxazole]",≤ 1 µM,< 10 µM,≤ 1 µM
"Cc1noc(C)c1-c1cnc2c(-c3cccnc3)c[nH]c2c1 [P-0083, 3,5-dimethyl-4-[3-(3-pyridyl)-1H-pyrrolo[3,2-b]pyridin-6-yl]isoxazole]",1 to 10 µM,< 10 µM,1 to 10 µM
"Cc1nc(-c2cn(S(=O)(=O)c3ccccc3)c3cc(-c4c(C)noc4C)cnc23)cs1 [P-0191, 4-[1-(benzenesulfonyl)-3-(2-methylthiazol-4-yl)pyrrolo[3,2-b]pyridin-6-yl]-3,5-dimethyl-isoxazole]",1 to 10 µM,< 10 µM,≤ 1 µM
"Cc1noc(C)c1-c1cnc2c(c1)c(Sc1ccccc1)cn2C1COC1 [P-0178, 3,5-dimethyl-4-[1-(oxetan-3-yl)-3-phenylsulfanyl-pyrrolo[2,3-b]pyridin-5-yl]isoxazole]",1 to 10 µM,,1 to 10 µM
"CCc1[nH]c2ncc(-c3c(C)noc3C)cc2c1Cc1cccc(OC(F)(F)F)c1 [P-0050, 4-[2-ethyl-3-[[3-(trifluoromethoxy)phenyl]methyl]-1H-pyrrolo[2,3-b]pyridin-5-yl]-3,5-dimethyl-isoxazole]",10 to 200 µM,< 10 µM,
